Measured values as given in patent US8932853B2, “Method for manufacturing pancreatic-hormone-producing cells” (Takeda Pharmaceutical Company Limited, priority 2009, dated 2015).
Entries after “also recorded” stand apart in the source; their conditions may differ.

Tests used:
Format in all cases: cell-based
[1] = tested on: insulin-producing cells differentiated from human iPS cells; assay: C-peptide secretion of differentiated insulin-producing cells in response to stimulation (Human C-peptide ELISA); conditions: 1 hr at 37° C. in buffer containing 2.5 mM glucose; (−)-Bay K8644 2 μM, tolbutamide 100 μM, carbachol 250 μM, IBMX 0.5 mM, KCl 30 mM; relative to 2.5 mM glucose
Method: The medium was changed once on day 7 of induction. […] The medium was changed every 3-4 days. After the culture, the cells were washed with a buffer containing 2.5 mM glucose (NaCl (116 mM), KCl (4.7 mM), KH2PO4 (1.18 mM), MgSO4 (1.18 mM), NaHCO3 (25 mM), CaCl2 (2.52 mM), HEPES (24 mM), 0.1% BSA), a buffer containing 2.5 mM glucose was added and the mixture was cultured at 37° C. for 2 hr. The supernatant was completely removed, and a buffer containing 2.5 mM glucose, a buffer containing 22.5 mM glucose, a buffer containing 2.5 mM glucose and 2 μM (−)-Bay K8644, a buffer containing 2.5 mM glucose and 100 μM tolbutamide, a buffer containing 2.5 mM glucose and 250 μM carbachol, a buffer containing 2.5 mM glucose and 0.5 mM IBMX, and a buffer containing 2.5 mM glucose and 30 mM KCl were respectively added. After culture at 37° C. for 1 hr, the culture supernatant was recovered, and the C-peptide contained in the culture supernatant was measured using Human C-peptide ELISA kit (Mercodia AB).

[2] = tested on: human iPS cells (253G1 strain); assay: quantitative RT-PCR of BRACHYURY and SOX17 during induction of human iPS cells into endodermal cells, steps (1)-(2); conditions: added with activin A (100 ng/ml) only the first day, CHIR99021 3 μM, Wnt3a 25 ng/ml, relative to GAPDH
Excerpt: As a first stage for induction of differentiation of human iPS cells (iPS cells obtained by introducing Oct3/4 gene, Klf4 gene and Sox2 gene: see Nat Biotechnol 2008; 26: 101-106) into pancreas cells (particularly pancreatic hormone-producing cells), differentiation of human iPS cells was induced into endodermal cells by using a 96 well plate.
As the human iPS cells, 253G1 strain (iPS cell line produced by expressing OCT4/SOX2/KLF4 with retrovirus; Nature Biotechnology 26, 101-106) was used. Maintenance culture of the iPS cells in an undifferentiated state was performed using mitomycin-treated mouse fibroblast (MEFs) seeded on a gelatin-coated plate as feeder cells, and a medium for primate ES cells (ReproCELL Incorporated) added with 4 ng/ml bFGF (PeproTech EC) and 0.5× Penicillin-streptomycin (SIGMA) as a medium at 37° C. under 5% CO2. The medium was changed every day, the cell mass was detached every 4-5 days using a cell detachment solution for primate ES cell (ReproCELL Incorporated), and passaged by seeding on new feeder cells.
As a preculture for differentiation induction into endodermal cells, undifferentiated iPS cells were seeded in a 96 well plate. First, iPS cells maintained in a cell mass was treated with 0.25% trypsin-1 mM EDTA solution (GIBCO) and dissociated until they became single cells. Then, iPS cells dispersed in a medium were seeded in a 96 well plate at a density of 2×10^4 cells per well and cultured at 37° C. under 5% CO2 for 1 day. The 96 well plate used had been gelatin-coated, seeded with 5×10^3 MEFs and cultured at 37° C. under 5% CO2 for 5 hr. In addition, as a culture medium for seeding, a medium for primate ES cells added with 10 μM Y-27632 (Wako Pure Chemical Industries, Ltd.) was used. One day after seeding, the medium was changed to a medium for primate ES cells without Y-27632, and the cells were further cultured for 2 days until they became confluent.
Differentiation of iPS cells into endodermal cells was induced according to the following method. First, the confluent cells were washed with RPMI medium (GIBCO), RPMI medium containing various differentiation-inducing factors and 2% fetal bovine serum (FBS) was added, and the mixture was cultured for 1 day. […]
To examine variation in the expression of endoderm differentiation marker when cultured under each condition, differentiation-induced cells were recovered over time, and the total RNA fractions were purified using RNeasy96 (Qiagen). Using a PrimeScript RT reagent kit (Takara Bio Inc.), cDNA was synthesized, and quantitative RT-PCR was performed, whereby the gene expression level of BRACHYURY, which is a primitive streak marker, and SOX17, which is an endodermal marker, was measured.

[3] = tested on: human iPS cells (253G1 strain); assay: immunofluorescent staining with anti-SOX17 antibody on day 3 of differentiation induction
Method: To examine expression of SOX17 protein after culture for 3 days, immunofluorescent staining using an anti-SOX17 antibody was performed. After culture up to day 3 in the same manner as in FIG. 1, the cells were fixed with 2% para-formaldehyde (PFA) for 10 min and further for 20 min with 4% PFA at room temperature.
Whether even use of a GSK3 inhibitor other than CHIR99021 in step (1) enables differentiation induction into endodermal cells was examined. The differentiation of human iPS cells into endodermal cells was induced according to the following method. […] Thereafter, the cells were washed with RPMI medium (GIBCO), and cultured for 1 day in RPMI medium containing various GSK3 inhibitors, activin A (100 ng/ml) and 2% fetal bovine serum (FBS). […] As a control, the cells were treated with a medium added only with activin A and free of GSK3 inhibitor. After culture for 1 day, the cells were washed with RPMI medium, and further cultured for 2 days in RPMI medium added with 2% FBS and 100 ng/ml activin A.
To examine expression of SOX17 protein on day 3 of differentiation induction, immunofluorescent staining using an anti-SOX17 antibody was performed. 4% PFA was added to the cells on day 3 of culture under each condition, the mixture was incubated at room temperature for 30 min to fix the cells.

[4] = tested on: endodermal cells induced from human iPS cells; conditions: added simultaneously with dorsomorphin (1 μM) and retinoic acid (2 μM) day 3 to day 10; SB431542 5 μM, ALK5 inhibitor II 2 μM, A-83-01 0.2 μM, TGFβRI kinase inhibitor VIII 0.2 μM; vs dorsomorphin and retinoic acid alone
Method: The dorsomorphin is an inhibitor of AMP-activated protein kinase (AMPK), and an inhibitor of ALK2, ALK3 and ALK6 from among activin receptor-like kinases (ALK). In addition, SB431542 is an inhibitor of ALK4, ALK5 and ALK7 from among ALKs.
As a control, the medium was changed to one added with dorsomorphin and retinoic acid alone (Ctrl). […] After the culture, the expression level of NGN3, which is progenitor cells of pancreatic hormone-producing cells marker, was measured in the same manner as in Example 1.

[5] = tested on: progenitor cells of pancreatic hormone-producing cells induced from human iPS cells; assay: immunofluorescent staining with anti-insulin antibody after step (4); conditions: each added alone in step (4), day 10 to day 21; forskolin 10 μM, dibutyl cAMP 500 μM, IBMX 200 μM, ALK5 inhibitor II 5 μM, A-83-01 0.5 μM, SB431542 10 μM, TGFβRI kinase inhibitor VIII 2 μM, dexamethasone 10 μM, hydrocortisone 5 μM, betamethasone 2 μM, beclomethasone 1 μM

Molecule | C-peptide secretion level [1] | positive rate of insulin-expressing cells [5] | other results
COC(=O)C1=C(C)NC(C)=C([N+](=O)[O-])C1c1ccccc1C(F)(F)F (single isomer, unassigned; (-)) [(−)-Bay K8644] | increased | – | –
Cc1c[nH]c(-c2cnc(NCCNc3ccc(C#N)cn3)nc2-c2ccc(Cl)cc2Cl)n1 [CHIR99021, 6-[[2-[[4-(2,4-dichlorophenyl)-5-(4-methyl-1H-imidazol-2-yl)-2-pyrimidinyl]amino]ethyl]amino]nicotinonitrile] | – | – | expression level of SOX17 (endodermal marker) ([2]; then activin A alone 2 days, days 2-3): increased markedly; also recorded: high value; expression level of BRACHYURY (primitive streak marker) ([2]; day 1 of differentiation induction): transiently increased; also recorded: highest value; ratio of cells expressing SOX17 protein ([3]; added with activin A (100 ng/ml) for 1 day, then activin A alone 2 days, CHIR99021 3 μM, Wnt3a 25 ng/ml, SB415286 3 μM, SB216763 20 μM): highest; also recorded: increased
Cc1cccc(-c2nn(C(=S)Nc3ccccc3)cc2-c2ccnc3ccccc23)n1 [Example A-83-01, 3-[6-methyl-2-pyridinyl]-N-phenyl-4-[4-quinolinyl]-1H-pyrazole-1-carbothioamide] | – | remarkably increased; also recorded: induced differentiation into insulin-positive cells with high efficiency | expression level of NGN3 [4]: increased remarkably
CC(C)Cn1c(=O)n(C)c(=O)c2[nH]cnc21 [IBMX, 3-isobutyl-1-methylxanthine] | increased | remarkably increased; also recorded: induced differentiation into insulin-positive cells with high efficiency | –
[Cl-].[K+] [KCl] | increased | – | –
NC(=O)c1ccc(-c2nc(-c3ccc4c(c3)OCO4)c(-c3ccccn3)[nH]2)cc1 [SB431542, 4-[4-(1,3-benzodioxol-5-yl)-5-(2-pyridinyl)-1H-imidazol-2-yl]-benzamide] | – | remarkably increased; also recorded: induced differentiation into insulin-positive cells with high efficiency | expression level of NGN3 [4]: increased remarkably
Cc1cccc(-c2[nH]c(C(C)(C)C)nc2-c2ccc3nccnc3c2)n1 [TGFβRI kinase inhibitor VIII, 6-[2-tert-butyl-5-[6-methyl-pyridin-2-yl]-1H-imidazol-4-yl]-quinoxaline] | – | remarkably increased; also recorded: induced differentiation into insulin-positive cells with high efficiency | expression level of NGN3 [4]: increased remarkably
C[C@H]1C[C@H]2[C@@H]3CCC4=CC(=O)C=C[C@]4(C)[C@@]3(Cl)[C@@H](O)C[C@]2(C)[C@@]1(O)C(=O)CO [beclomethasone] | – | remarkably increased; also recorded: induced differentiation into insulin-positive cells with high efficiency | –
C[N+](C)(C)CCOC(N)=O [carbachol] | increased | – | –
CCCC(=O)Nc1ncnc2c1ncn2[C@@H]1O[C@@H]2COP(=O)(O)O[C@H]2[C@H]1OC(=O)CCC [dibutyl cAMP] | – | remarkably increased; also recorded: induced differentiation into insulin-positive cells with high efficiency | –
C[C@]12CCC(=O)C=C1CC[C@@H]1[C@@H]2[C@@H](O)C[C@@]2(C)[C@H]1CC[C@]2(O)C(=O)CO [hydrocortisone] | – | remarkably increased; also recorded: induced differentiation into insulin-positive cells with high efficiency | –
CCCCNC(=O)NS(=O)(=O)c1ccc(C)cc1 [tolbutamide] | increased | – | –
activin A: 24 kD peptidic cell proliferation and differentiation factor belonging to the TGFβ family; activator of activin receptor-like kinase-4,7 (protein, UniProt P08476 311-426, looked up, Inhibin beta A chain) Inhibin beta A chain: GLECDGKVNICCKKQFFVSFKDIGWNDWIIAPSGYHANYCEGECPSHIAGTSGSSLSFHSTVINHYRMRGHSPFANLKSCCVPTKLRPMSMLYYDDGQNIIKKDIQNMIVEECGCS | – | – | ratio of cells expressing SOX17 protein ([3]; activin A (100 ng/ml) alone for 3 days (Comparative Example 1)): a part of the cells also expressed SOX17 protein
